We go through seven compounds from paper PMC4784473 (Bioorganic & medicinal chemistry letters, 2008).

One test concerns the target M. tuberculosis DXS (Mycobacterium tuberculosis, UniProt P9WNS3). The test can be described thus: biochemical. Type of test: biochemical. To be noted: for inhibitory activity against M. tuberculosis DXS (in words): SAR discussion.
The next test deals with Vero cells. Nature of the test: Vero cell cytotoxicity. Type of test: cell-based. To be noted: Vero cell toxicity versus M. tuberculosis growth inhibition.

Chain of M. tuberculosis DXS (P9WNS3 whole entry): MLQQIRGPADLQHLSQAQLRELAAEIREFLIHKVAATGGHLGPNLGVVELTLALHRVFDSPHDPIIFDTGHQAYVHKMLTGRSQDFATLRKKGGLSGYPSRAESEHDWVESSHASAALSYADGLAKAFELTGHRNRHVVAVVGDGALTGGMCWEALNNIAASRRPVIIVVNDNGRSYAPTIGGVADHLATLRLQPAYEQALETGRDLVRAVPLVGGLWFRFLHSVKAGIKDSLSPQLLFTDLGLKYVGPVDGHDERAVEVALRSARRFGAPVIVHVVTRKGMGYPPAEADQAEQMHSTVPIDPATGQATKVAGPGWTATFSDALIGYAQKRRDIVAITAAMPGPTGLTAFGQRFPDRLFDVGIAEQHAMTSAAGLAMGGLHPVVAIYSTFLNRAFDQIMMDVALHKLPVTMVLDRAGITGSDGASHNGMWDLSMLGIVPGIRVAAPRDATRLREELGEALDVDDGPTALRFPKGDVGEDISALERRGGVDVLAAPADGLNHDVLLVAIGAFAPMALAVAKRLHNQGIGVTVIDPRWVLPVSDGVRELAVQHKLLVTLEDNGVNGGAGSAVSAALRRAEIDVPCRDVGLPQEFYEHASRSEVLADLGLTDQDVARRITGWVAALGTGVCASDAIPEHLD

Consider `COCc1cc(=O)n2ncc(-c3ccc(Cl)cc3)c2[nH]1` [Compound 2], for which, at M. tuberculosis DXS, the “inhibitory activity against M. tuberculosis DXS (in words)” value (from here on “inhibitory activity”) is “inhibitory activity was abolished”.

Take `COc1ccc(-c2cc(=O)n3nc(C)c(-c4ccc(Cl)cc4)c3[nH]2)cc1` [Compound 18]: in the test on Vero cells, the selectivity index turned out to be 2.1.

Regarding `COCc1cc(=O)n2nc(C)c(-c3ccc(Cl)cc3)c2[nH]1` [Compound 25], the “inhibitory activity” value at M. tuberculosis DXS is recorded as “loss in activity”.

`Cc1cc(=O)n2ncc(-c3ccc(Cl)cc3)c2[nH]1` [Compound 3]: the “inhibitory activity” value against M. tuberculosis DXS is given as “inhibitory activity was abolished”.

In the case of `CCOC(=O)Cc1c(C)nc2c(-c3ccccc3)cnn2c1O` [Compound 4], the “inhibitory activity” value against M. tuberculosis DXS is “lost its activity”.

On M. tuberculosis DXS, `CCCc1c(-c2ccccc2)[nH]c2c(-c3ccccc3)c(C)nn2c1=O` [Compound 27] gave a 50% inhibitory concentration (IC50) of 71.9 ± 10.1 µM.

In the test with Vero cells, `COc1ccc(-c2cc(=O)n3nc(C)c(-c4ccc(F)cc4)c3[nH]2)cc1` [Compound 19, 2-methyl-3-(4-fluorophenyl)-5-(4-meth-oxy-phenyl)-4H-pyrazolo[1,5-a]pyrimidin-7-one] yielded a selectivity index of 4.6.

One may read the IC50 as the concentration needed to halve the response being measured.
